Measurements as given in PubChem BioAssay (NCI).
Where “and” joins values, the source holds several entries; their conditions need not be identical. Equal entries are not always repeated.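 Dose response: 5 concentrations. Exposure: 48 h. Format: 96-well plates. Endpoint: linear interpolation; highest concentration if not reached. Here, GI50 denotes the concentration required for 50% inhibition of growth. TGI marks complete inhibition of growth.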 Where a SMILES comes first, the peptide text is derived from it. [ ]: non-standard residue; d: D form. The star is where a group is joined. ξ: configuration not given here. X16 = COC1=CC(=O)N(C(=O)C(O*)C(C)C)C1Cc1ccccc1; ξNMe2Val = CC(C)C(C(=O)*)N(C)C; NMeV = CN[CH](C(=O)O)C(C)C

Assays:
Assay in all cases: NCI anticancer screen, dose series, 48 h
[1] = system: SK-OV-3 ovarian
[2] = system: OVCAR-3 ovarian
[3] = system: HT29 colon
[4] = system: SF-295 CNS
[5] = system: HL-60(TB) leukemia
[6] = system: UACC-62 melanoma
[7] = system: COLO 205 colon
[8] = system: NCI-H226 lung
[9] = system: MCF7 breast
[10] = system: MALME-3M melanoma

Structure (SMILES)	TGI [1] [µM]	TGI [2]	TGI [3] [µM]	TGI [4]	TGI [5]	TGI [6] [µM]	TGI [7]	TGI [8] [µM]	TGI [9] [µM]	TGI [10] [µM]	GI50 [1] [µM]	GI50 [2] [µM]	GI50 [4] [µM]	GI50 [5] [µM]	GI50 [6] [µM]	GI50 [7] [µM]	GI50 [8] [µM]	GI50 [10] [µM]	GI50 [9] [µM]
COc1ccc2c(O)c3[n+](cc2c1OC)CCc1cc2c(cc1-3)OCO2	> 100	> 100 µM	> 100	> 100 µM	> 100 µM	> 100	> 100 µM	> 100	> 100										
COc1ccc(C(=O)C2CC3(CCC2(O)c2ccc(OC)cc2)CC(=O)Nc2ccccc2C3=O)cc1 (stereo unspecified)	> 100	> 100 µM	> 100	> 100 µM	> 100 µM	> 100	> 100 µM	> 100	> 100	> 100									
OCC(O)COc1ccc(Br)cc1 (stereo unspecified)	> 100	> 100 µM	> 100	> 100 µM	> 100 µM	> 100	> 100 µM	> 100		> 100									
Nc1cc2c(cc1[N+](=O)[O-])[nH]c1c(-c3ccccc3)nccc12	55.9	48.5 µM	46.8	53.4 µM	42.1 µM	27.8	44.3 µM	56.5	> 64.1	52.1									
COC1=CC(=O)N(C(=O)C(OC(=O)C2CCCN2C(=O)C2CCCN2C(=O)C(C(C)C)N(C)C(=O)C(NC(=O)C(C(C)C)N(C)C)C(C)C)C(C)C)C1Cc1ccccc1 (stereo unspecified) (ξNMe2Val-V[NMeV]PP-X16; configuration not given here)		0.00383 µM and < 0.0004 µM	0.0066	0.0074 µM and 0.00436 µM	0.00123 µM and < 0.0004 µM	> 4	0.00838 µM and 0.0415 µM	1.54	> 4	> 4	0.0042	< 0.0004	< 0.0004	< 0.0004	< 0.0004	< 0.0004	0.000406	< 0.0004	< 0.0004
Cc1ccc(N=Nc2c(O)c3ccccc3[nH]c2=O)c(S(=O)(=O)N(C)C)c1	> 100	> 100 µM	> 100	> 100 µM	> 100 µM	> 100	> 100 µM	> 100	> 100	> 100									
Cc1ccc(OP2(=O)Oc3ccc4ccccc4c3CN2c2ccc(Cl)cc2)cc1C (stereo unspecified)	> 100	> 100 µM	> 100	> 100 µM	> 100 µM	> 100	> 100 µM	> 100	> 100	> 100									
